Reference: patent publication US20160279207A1, “TARGETING GDF6 AND BMP SIGNALING FOR ANTI-MELANOMA THERAPY” (University of Massachusetts, priority 2015, published 2016)
Entries after “also recorded” stand apart in the source; their conditions may differ.

What was measured:
BMP signaling = assay: Western blot of phospho-SMAD1 relative to total SMAD in DMH1-treated A375 cells; format: cell-based, human; conditions: 10 μM DMH1 vs control media
Protocol: Protein extracts were prepared as previously described (S. D. Epstein L B, Hunte-McDonough B, harris C A, Cytokines: A pratical approach (Balkwill F R., ed). 81-93 (1991)). Extracts were separated on 12% SDS-PAGE gels. Blots were probed with primary antibodies (GDF6 (Sigma PRS4691; 1:1000), phospho-SMAD1/5/8 (Cell Signaling 13820; 1:1000), SMAD1 (Cell Signaling 9743; 1:500), Total SMAD1/5/8 (Santa Cruz sc-6031-R; 1:1000), FLAG (Sigma F3165, 1:2000), GAPDH (Abcam 8245; 1:2000)) overnight at 4° C., washed five times in TBS plus 0.1% Tween (TBST) and then incubated with the appropriate HRP-conjugated secondary antibody (Jackson Labs) for 1 hour at room temperature. Membranes were washed five times in TBST and visualized on autoradiography film after incubating with ECL reagent (Supersignal West Pico or Supersignal West Femto; Thermo Scientific).

A375 melanoma cells [1] = assay: A375 melanoma xenograft in nude mice, tumor volume; format: in vivo, mouse; conditions: 25 mg/kg DMH1 intraperitoneally every other day, A375 cells in BALB/c nu/nu mice
Protocol: An art-accepted model to test for an agent's effects on melanoma is that of using immunocompromised (“nude”) mice which are then injected subcutaneously with melanoma cells, and then concomitant with injection of the cells, sometime after injection, and/or after tumor establishment, the test agent is appropriately administered (e.g., intravenously, peritoneally, orally, etc.). Control and treated animals are monitored in part for tumor growth, tumor stabilization, and tumor regression (see for example, Yang et al. 2010. Cancer Res., 70:5518-5527 and Bollag et al. 2010. Nature. 467:596-599).
All animal protocols were approved by the UMMS Institution Animal Care and Use Committee (A-2016, A-2171). Mice were randomly allocated to individual experimental groups. No blinding was done as animal groups were identified by tagging and cage labeling. Animals were excluded, according to pre-established criteria, if the tumor volume reached >1,000 mm^3; if tumor size or location affected the mobility or general health of animal, the animal was euthanized and excluded from the experiment or the complete experiment was terminated. A375 cells stably expressing an EGFP or GDF6 or SMAD1 shRNA and/or empty vector or GDF6-expressing vector or SMAD1DVD-overexpressing vector were subcutaneously injected into the flanks of 6-8-week-old BALB/c nu/nu female mice (Taconic Farms) to produce orthotopic primary tumor. Primary tumor growth was monitored every 3 days with calipers, and the tumor volume was calculated as described previously (C. Gazin, N. Wajapeyee, S. Gobeil, C. M. Virbasius, M. R. Green, An elaborate pathway required for Ras-mediated epigenetic silencing. Nature 449, 1073-1077 (2007)). For GDF6 knockdown, SMAD1 knockdown and epistasis experiments, 1×10^7 live cells were injected. For GDF6 overexpression experiments, 1×10^6 live cells were injected. For GDF6 overexpression and GDF6 knockdowns, a representative of two independent experiments (n=3 animals per experiment) is shown. For DMH1 drug experiments, 1×10^6 live A375 cells were subcutaneously injected in the flanks of BALB/c nu/nu female mice. Beginning on the day cells were injected, mice were injected intraperitoneally with vehicle 12.5% 2-hydroxypropyl-β-cyclodextrin or 25 mg/kg DMH1 in vehicle every other day. The growth of the tumor was monitored as described above. This experiment was repeated twice and the weighted average of both experiments (n=8 total) is represented.

A375 melanoma cells [2] = assay: Clonogenic growth (colony formation) assay; format: cell-based, human; conditions: A375-EMPTY vs A375-SMAD1DVD, 10 μM DMH1 in 0.1% DMSO
Protocol: For growth curves 50,000 live cells were seeded per well in a 6-well tissue culture plate on day 0. The numbers of live cells were calculated every day using an automated cell counter (Nexcelom Bioscience Cellometer Auto T4) following standard procedures. All assays were performed with technical replicates. For clonogenic assays, 3,000 live cells were seeded in a 10 cm tissue culture plate. […] ImageJ was used to quantify the number of colonies. In assays with DMH1 treatment, control or DMH1-containing media was replaced every other day. For soft agar assays a 0.5% bottom layer (1:1 with 1% agar and 2X DMEM with 20% FBS) and a 0.3% top layer (1:1 with 0.6% agar and 2× DMEM with 20% FBS) were used. 3,000 live cells per well of a 6-well tissue culture plate were added in the top layer. Media was added initially then replaced every 3 days. After 3 weeks, colonies were stained with nitroblue tetrazolium chloride overnight at 37° C. Once stained, individual wells were photographed, and ImageJ was used to count the number of colonies. All these assays were done in triplicate, and experiments were repeated at least twice. A representative image of each has been shown.

SKMEL28 melanoma cells = assay: Growth curves of SKMEL28 cells by direct cell counting; format: cell-based, human; conditions: DMH1 vs control
Protocol: (§1) For growth curves 50,000 live cells were seeded per well in a 6-well tissue culture plate on day 0. The numbers of live cells were calculated every day using an automated cell counter (Nexcelom Bioscience Cellometer Auto T4) following standard procedures. All assays were performed with technical replicates. For clonogenic assays, 3,000 live cells were seeded in a 10 cm tissue culture plate. After 3 weeks, colonies were fixed and stained using bromophenol blue in acetone. ImageJ was used to quantify the number of colonies. In assays with DMH1 treatment, control or DMH1-containing media was replaced every other day. For soft agar assays a 0.5% bottom layer (1:1 with 1% agar and 2X DMEM with 20% FBS) and a 0.3% top layer (1:1 with 0.6% agar and 2× DMEM with 20% FBS) were used. 3,000 live cells per well of a 6-well tissue culture plate were added in the top layer. Media was added initially then replaced every 3 days. After 3 weeks, colonies were stained with nitroblue tetrazolium chloride overnight at 37° C. Once stained, individual wells were photographed, and ImageJ was used to count the number of colonies. All these assays were done in triplicate, and experiments were repeated at least twice. A representative image of each has been shown.

A375 melanoma cells [3] = assay: Growth curves of A375 cells by direct cell counting; format: cell-based, human; conditions: 10 μM DMH1 vs control
Protocol: as §1

## CC(C)Oc1ccc(-c2cnc3c(-c4ccnc5ccccc45)cnn3c2)cc1 [DMH1]
BMP signaling
  level of phospho-SMAD1 relative to total SMAD protein: reduced level of phospho-SMAD1 relative to total SMAD protein
A375 melanoma cells [1]
  tumor growth (tumor volume over time), DMH1 vs vehicle: smaller tumors arose and grew more slowly; also recorded: decreased tumorigenicity; also recorded: abrogates melanoma growth in mouse xenografts in vivo
A375 melanoma cells [2]
  colony formation of DMH1-treated cells expressing SMAD1DVD: reversed by SMAD1DVD
SKMEL28 melanoma cells
  SKMEL28 melanoma cell growth (growth curves): grew more slowly than did control cells
A375 melanoma cells [3]
  A375 melanoma cell growth (growth curves): grew more slowly than did control cells; also recorded: inhibits A375 melanoma cell growth
